In US20220023172A1, “COSMETIC COMPOSITIONS AND METHODS OF USE” (STC.UNM, priority 2018, published 2022):

melting point [°C]	SMILES
50 to 51	COc1cccc(/C=C/c2ccc(F)cc2)c1OC
58 to 59	COc1ccc(OC)c(/C=C/c2ccc(F)cc2)c1
109 to 110	COc1ccc(/C=C/c2cc(F)ccc2F)cc1
76 to 77	Fc1ccc(/C=C/c2cc(F)ccc2F)cc1
38 to 40	COc1cccc(/C=C/c2ccc(C)cc2)c1OC
49 to 50	COc1cccc(/C=C/c2ccccc2OC)c1
48 to 49	COc1cccc(/C=C/c2cc(OC)ccc2OC)c1
67 to 69	COc1cccc(/C=C/c2ccc(C(F)(F)F)cc2)c1OC

Continued, molecule first:

SMILES	melting point [°C]
COc1ccccc1/C=C/c1ccccc1F	34 to 35
Cc1ccc(/C=C/c2ccc(F)c(F)c2)cc1	90 to 92
Fc1ccc(/C=C/c2ccccc2F)cc1F	85 to 86
COc1ccc(/C=C/c2ccc(F)c(F)c2)cc1	73 to 74
Fc1ccc(F)c(/C=C/c2ccccc2F)c1	79 to 81
Fc1cccc(/C=C/c2ccc(F)c(F)c2)c1	48 to 49
Fc1cccc(/C=C/c2cc(F)ccc2F)c1	73 to 74
Fc1cccc(/C=C/c2ccc(F)cc2F)c1	60 to 61
Fc1ccc(/C=C/c2ccccc2F)c(F)c1	84 to 85
Cc1ccc(/C=C/c2ccc(F)cc2F)cc1	72 to 73
